Measured values: patent US9938262B2, “Benzamides” (Merck Patent GmbH, priority 2011, dated 2018)

biological target: T1, FSHR (Homo sapiens, UniProt P23945); assay: EC50 of cyclic AMP production in CHO FSHR cells + EC20 FSH (Assay A); assay type: cell-based; conditions: 1 h; 5 μM; effect relative to maximum response of the FSH standard; Table 1
T1 construct: expressed in transfected cells; host or cells: CHO (Cho-FSHR-LUC-1-1-43)
Description: Example 10: EC50 of Cyclic AMP Production in CHO FSHR Cells+EC20 FSH (Assay A)
2500 Cho-FSHR-LUC-1-1-43 cells were plated per well in 5 μl of phenol red free DMEM/F12+1% FBS. Cells were plated in 384 well, solid white low volume plates (Greiner 784075) by Multidrop. Cells were assayed by adding 100 μl of 2×EC20 FSH/IBMX in DMEM/F12+0.1% BSA) by Multidrop to 2 μl of test compound stamped in 384 well plates (compounds are diluted 1:50). The final FSH concentration was […], and the final IBMX concentration was 200 μM. The compound plate map was as follows: Column 1: 2 μl of DMSO; Column 2: 2 μl of DMSO; Columns 3-12 and 13-24: 2 μl of test compound, diluted 1:4 in 100% DMSO, or 2 μl of FSH, diluted 1:4 in DMEM/F12+0.1% BSA. The starting concentration for FSH was 50 nM (final concentration was 0.5 nM). […] 5 μl of compound+EC20 FSH mixture were transferred to cell plates (1:2 dilution into 5 μl of cell media) The plates were incubated at 37° C. for 1 h. 10 μl of mixed HTRF (CisBio #62AM4PEC) reagents were added per well and incubated at room temperature for 1 h. The plates were read on Envision using the cAMP HTRF—low volume 384 well protocol. The readout was the calculated fluorescence ratio (665 nm/620 nm). Values given in percent (%) indicate the percental effect (response) at a certain concentration of agonist relative to the maximum response of the FSH standard.

T1 sequence (P23945 18-695): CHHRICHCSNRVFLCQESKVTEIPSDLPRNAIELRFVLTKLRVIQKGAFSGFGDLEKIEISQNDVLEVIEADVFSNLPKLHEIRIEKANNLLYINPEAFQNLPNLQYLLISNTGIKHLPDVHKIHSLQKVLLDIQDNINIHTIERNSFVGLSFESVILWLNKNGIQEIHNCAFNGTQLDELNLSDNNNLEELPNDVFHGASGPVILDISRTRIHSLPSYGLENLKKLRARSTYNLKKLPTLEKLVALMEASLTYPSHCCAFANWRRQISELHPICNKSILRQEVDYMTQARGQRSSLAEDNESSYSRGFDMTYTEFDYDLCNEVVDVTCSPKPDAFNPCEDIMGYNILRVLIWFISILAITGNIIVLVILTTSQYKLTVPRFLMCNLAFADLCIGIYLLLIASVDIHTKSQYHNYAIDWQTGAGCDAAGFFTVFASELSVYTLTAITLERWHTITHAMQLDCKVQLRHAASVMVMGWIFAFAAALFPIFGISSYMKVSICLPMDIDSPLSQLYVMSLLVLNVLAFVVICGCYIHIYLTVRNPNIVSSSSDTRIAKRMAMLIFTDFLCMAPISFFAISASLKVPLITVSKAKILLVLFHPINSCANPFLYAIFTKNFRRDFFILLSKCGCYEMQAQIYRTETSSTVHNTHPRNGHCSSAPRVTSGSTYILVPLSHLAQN
T1 sequence (P01215 25-116 partner): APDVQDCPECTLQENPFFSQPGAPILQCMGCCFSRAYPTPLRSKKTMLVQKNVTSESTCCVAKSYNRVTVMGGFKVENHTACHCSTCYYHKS
T1 sequence (P01225 19-129 partner): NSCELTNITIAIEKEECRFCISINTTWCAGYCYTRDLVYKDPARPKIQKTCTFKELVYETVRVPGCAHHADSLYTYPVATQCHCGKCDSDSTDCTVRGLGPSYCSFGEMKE

Row | activation at 5 µM | SMILES
1 | 21% | Cc1ccccc1N1CCN(c2ccc(C(=O)NCCCN3CCCC3=O)cc2NC(=O)c2cccc3c2CCCC3)CC1 [Compound 112]
2 | 7% | Cc1ccccc1N1CCN(c2ccc(C(=O)N3CCN(C(=O)OC(C)(C)C)CC3)cc2NC(=O)c2ccco2)CC1 [Compound 12]
3 | 12% | CCNc1nc(C)c(C(=O)Nc2cc(C(=O)NCCCN3CCCC3=O)ccc2N2CCN(c3ccccc3C)CC2)s1 [Compound 100]
4 | 26% | Cc1ccccc1CN1CCN(c2ccc(C(=O)NCCCN3CCCC3=O)cc2NC(=O)c2coc(C3CC3)n2)C[C@@H]1C [Compound 256]
5 | 44% | Cc1ccccc1N1CCN(c2ccc(C(=O)NCCCN3CCCC3=O)cc2NC(=O)c2cccc3cccnc23)CC1 [Compound 44]
6 | 39% | Cc1ccccc1N1CCN(c2ccc(C(=O)NCCCN3CCCC3=O)cc2NC(=O)c2cccc3nccnc23)CC1 [Compound 115]
7 | 21% | C[C@H]1CN(c2ccc(C(=O)NCCCN3CCCC3=O)cc2NC(=O)c2coc(C3CC3)n2)CCN1Cc1ccccc1C(F)(F)F [Compound 257]
8 | 41% | Cc1ccccc1N1CCN(c2ccc(C(=O)NCCCN3CCCC3=O)cc2NC(=O)c2cc(C)c(C)o2)CC1 [Compound 138]
9 | 44% | Cc1ccccc1N1CCN(c2ccc(C(=O)NCCCN3CCCC3=O)cc2NC(=O)c2ccc3ccccc3c2)CC1 [Compound 43]
10 | 33% | Cc1ccccc1N1CCN(c2ccc(C(=O)NCCCN3CCCC3=O)cc2NC(=O)c2c(C)noc2C)CC1 [Compound 106]

same assay, conditions: 1 h; 5 μM; effect relative to maximum response of the FSH standard; Table 2

Row | activation at 5 µM | SMILES
11 | 48% | Cc1ccc(C(=O)Nc2cc(C(=O)NCCCN3CCOC3=O)ccc2N2CCN(c3nccn3C)CC2)o1 [Compound 514]
12 | 47% | Cc1ccccc1N1CCN(c2ccc(C(=O)NCCCN3CCCC3=O)cc2NC(=O)c2cc(C3CC3)nn2C)CC1 [Compound 315]

same assay, conditions: CHO FSHR cells + EC20 FSH; Table 1; read-out: Assay A EC50 of cyclic AMP production

Row | EC50 | SMILES
13 | < 100 nM | Cc1ccccc1N1CCN(c2ccc(C(=O)NCc3ccc(C(N)=O)cc3)cc2NC(=O)c2ccco2)CC1 [Compound 247]
14 | 1000 to 10000 nM | COc1ccc(CNC(=O)c2ccc(N3CCN(c4ccccc4C)CC3)c(NC(=O)c3ccc(C)o3)c2)cc1OC [Compound 171, 5-Methyl-furan-2-carboxylic acid [5-(3,4-dimethoxy-benzylcarbamoyl)-2-(4-o-tolyl-piperazin-1-yl)-phenyl]-amide]
15 | 1000 to 10000 nM | Cc1ccc(C(=O)Nc2cc(C(=O)N[C@@H]3CCN(C(=O)OC(C)(C)C)C3)ccc2N2CCN(c3ccccc3C)CC2)o1 [Compound 142, (R)-3-[3-[(5-Methyl-furan-2-carbonyl)-amino]-4-(4-o-tolyl-piperazin-1-yl)-benzoylamino]-pyrrolidine-1-carboxylic acid tert-butyl ester]
16 | 1000 to 10000 nM | Cc1ccc(C(=O)Nc2cc(C(=O)NCCCNC(=O)OC(C)(C)C)ccc2N2CCN(c3ccccc3C)CC2)o1 [Compound 258, {3-[3-[(5-Methyl-furan-2-carbonyl)-amino]-4-(4-o-tolyl-piperazin-1-yl)-benzoylamino]-propyl}-carbamic acid tert-butyl ester]
17 | 1000 to 10000 nM | Cc1cccc(C(=O)Nc2cc(C(=O)NCCCN3CCCC3=O)ccc2N2CCN(c3ccccc3C)CC2)n1 [Compound 186, 6-Methyl-pyridine-2-carboxylic acid [5-[3-(2-oxo-pyrrolidin-1-yl)-propylcarbamoyl]-2-(4-o-tolyl-piperazin-1-yl)-phenyl]-amide]
18 | 1000 to 10000 nM | Cc1ccccc1N1CCN(c2ccc(C(=O)NCCCN3CCCC3=O)cc2NC(=O)c2ccccc2Cl)CC1 [Compound 19]
19 | 1000 to 10000 nM | Cc1ccccc1N1CCN(c2ccc(C(=O)N[C@@H]3CCCNC3)cc2NC(=O)c2ccco2)CC1 [Compound 22]
20 | 1000 to 10000 nM | Cc1nc(C(=O)Nc2cc(C(=O)NCCCN3CCCC3=O)ccc2N2CCN(c3ccccc3C)CC2)c(C(F)(F)F)o1 [Compound 76]
21 | 1000 to 10000 nM | Cc1ccc(C(=O)Nc2cc(C(=O)NCCN3CCN(C(=O)OC(C)(C)C)CC3)ccc2N2CCN(c3ccccc3C)CC2)o1 [Compound 214]
22 | 1000 to 10000 nM | Cc1ccccc1N1CCN(c2ccc(C(=O)NCCN(C)C(=O)c3ccc4c(c3)OCO4)cc2NC(=O)c2ccco2)CC1 [Compound 134, Benzo[1,3]dioxole-5-carboxylic acid {2-[3-[(furan-2-carbonyl)-amino]-4-(4-o-tolyl-piperazin-1-yl)-benzoylamino]-ethyl}-methyl-amide]
23 | 1000 to 10000 nM | Cc1ccccc1N1CCN(c2ccc(C(=O)NCCCN3CCCC3=O)cc2NC(=O)CC(C)C)CC1 [Compound 26]
24 | 100 to 1000 nM | Cc1ccccc1N1CCN(c2ccc(C(=O)NCCCn3cccn3)cc2NC(=O)c2ccco2)CC1 [Compound 90]
25 | 100 to 1000 nM | COc1cc(CNC(=O)c2ccc(N3CCN(c4ccccc4C)CC3)c(NC(=O)c3ccco3)c2)cc(OC)c1 [Compound 95, Furan-2-carboxylic acid [5-(3,5-dimethoxy-benzylcarbamoyl)-2-(4-o-tolyl-piperazin-1-yl)-phenyl]-amide]
26 | 1000 to 10000 nM | COc1ccc(C(=O)Nc2cc(C(=O)NCCCN3CCCC3=O)ccc2N2CCN(c3ccccc3C)CC2)c(OC)c1 [Compound 59]

same assay, conditions: CHO FSHR cells + EC20 FSH; Table 2; read-out: Assay A EC50 of cyclic AMP production

Row | EC50 | SMILES
27 | 100 to 1000 nM | O=C(NCCCN1CCCC1=O)c1ccc(N2CC=C(c3ccccc3)CC2)c(NC(=O)c2coc(C3CC3)n2)c1 [Compound 399]
28 | > 10000 nM | NC(=O)c1cccnc1N1CCN(c2ccc(C(=O)NCCCN3CCCC3=O)cc2NC(=O)c2coc(C3CC3)n2)CC1 [Compound 532]
29 | 100 to 1000 nM | CCN(CC)Cc1cccc(CNC(=O)c2ccc(N3CCN(c4ccccc4C)CC3)c(NC(=O)c3ccco3)c2)c1 [Compound 473]
30 | 100 to 1000 nM | Cc1ccccc1N1CCN(c2ccc(C(=O)NCCC(C)N3CCCC3=O)cc2NC(=O)c2coc(C3CC3)n2)CC1 (stereo not drawn) [Compound 333]
31 | 1000 to 10000 nM | Cc1nnc(N2CCN(c3ccc(C(=O)NCCCN4CCCC4=O)cc3NC(=O)c3coc(C4CC4)n3)CC2)s1 [Compound 598]
32 | 100 to 1000 nM | Cc1ccccc1N1CCN(c2ccc(C(=O)NC3CCN(S(C)(=O)=O)CC3)cc2NC(=O)c2coc(C3CC3)n2)CC1 [Compound 297]
33 | < 100 nM | Cc1ccccc1N1CCN(c2ccc(C(=O)NC[C@H](O)c3ccccc3)cc2NC(=O)c2ccco2)CC1 [Compound 585]
34 | 100 to 1000 nM | Cc1ccccc1N1CCN(c2ccc(C(=O)NCCCc3scnc3C)cc2NC(=O)c2coc(C3CC3)n2)CC1 [Compound 391]
35 | 100 to 1000 nM | Cc1ccccc1N1CCN(c2ccc(C(=O)NCCN3CCCC3=O)cc2NC(=O)c2coc(C3CC3)n2)CC1 [Compound 288]
36 | > 10000 nM | O=C(NCCCN1CCCC1=O)c1ccc(N2CCN(C(=O)C3CC3)CC2)c(NC(=O)c2coc(C3CC3)n2)c1 [Compound 431]
37 | 1000 to 10000 nM | COc1ccnc(N2CCN(c3ccc(C(=O)NCCCN4CCCC4=O)cc3NC(=O)c3coc(C4CC4)n3)CC2)c1 [Compound 530]
38 | 1000 to 10000 nM | Cc1ccccc1N1CCN(c2ccc(C(=O)N[C@@H](CO)c3ccccc3)cc2NC(=O)c2coc(C3CC3)n2)CC1 [Compound 343]
39 | 100 to 1000 nM | Cc1ccccc1N1CCN(c2ccc(C(=O)NCCCN3CCOC3=O)cc2NC(=O)c2ccc(Br)o2)CC1 [Compound 385]
40 | > 10000 nM | Cc1ccc(C(=O)Nc2cc(C(=O)NCCCN3CCCC3=O)ccc2N2CCC(N(C)c3ccccc3)CC2)o1 [Compound 423]
41 | 100 to 1000 nM | Cc1ccccc1N1CCN(c2ccc(C(=O)NCC3C[C@@H]4CC[C@H]3C4)cc2NC(=O)c2ccco2)CC1 (stereo partly drawn) [Compound 380]
42 | 100 to 1000 nM | Cc1ccccc1N1CCN(c2ccc(C(=O)NCCCc3nccs3)cc2NC(=O)c2coc(C3CC3)n2)CC1 [Compound 393]
43 | 100 to 1000 nM | Cc1ccccc1N1CCN(c2ccc(C(=O)NCC3(C(N)=O)CC3)cc2NC(=O)c2coc(C3CC3)n2)CC1 [Compound 359]
44 | 100 to 1000 nM | Cc1ccccc1N1CCN(c2ccc(C(=O)NCCCNC(=O)NC(C)C)cc2NC(=O)c2coc(C3CC3)n2)CC1 [Compound 425]
45 | 1000 to 10000 nM | Cc1ccccc1N1CCN(c2ccc(C(=O)NC[C@H](O)[C@@H](O)CN)cc2NC(=O)c2coc(C3CC3)n2)CC1 [Compound 561]
46 | 100 to 1000 nM | COc1cc(CNC(=O)c2ccc(N3CCN(c4ccccc4C)CC3)c(NC(=O)c3coc(C4CC4)n3)c2)cc(OC)c1 [Compound 295]
47 | 1000 to 10000 nM | Cc1ccc(C(=O)Nc2cc(C(=O)NCCCN3CCCC3=O)ccc2N2CCN(c3c(C)cccc3C)CC2)o1 [Compound 298]
48 | 1000 to 10000 nM | Cc1ccccc1N1CCN(c2ccc(C(=O)Nc3cccc(N4CCCC4=O)c3)cc2NC(=O)c2ccco2)CC1 [Compound 482]
49 | 100 to 1000 nM | CC(=O)NCCCNC(=O)c1ccc(N2CCN(c3ccccc3C)CC2)c(NC(=O)c2coc(C3CC3)n2)c1 [Compound 368]
50 | 100 to 1000 nM | COC(=O)NCCCNC(=O)c1ccc(N2CCN(c3ccccc3C)CC2)c(NC(=O)c2ccc(C)o2)c1 [Compound 271]
51 | 100 to 1000 nM | Cc1ccccc1N1CCN(c2ccc(C(=O)NCC(O)CN3CCCC3)cc2NC(=O)c2ccco2)CC1 (stereo not drawn) [Compound 501]
